One data set relates to Bacteria. As to the kind of experiment: Minimum inhibitory concentration required against six gram-positive organisms (G+6). The data set is classed as functional.
Data set [1] in a line: Solubility at pH 7.4. In kind it is physicochemical. As to conditions: buffer.
The subject of a further data set is Staphylococcus aureus. In words: Inhibitory concentration required against cell wall synthesis in Staphylococcus aureus (MI246). The data set is classed as functional, organism-based.

SMILES strings stand for the structures. In brackets after ≈: the same amount, converted by molar mass.

From ChEMBL document CHEMBL1134249, “The identification and characterization of hydrazinyl urea-based antibacterial agents through combinatorial chemistry” (Bioorg Med Chem Lett, 2001) come the findings set out here.

In the data set with Bacteria, `O=C(NNc1nccc(C(F)(F)F)n1)Nc1cc(C(F)(F)F)cc(C(F)(F)F)c1` displayed an MIC of 4 µM (≈ 1.73 µg/mL). In data set [1], the solubility was found to be 2 µg/mL (≈ 4.62 µM). In the data set with Staphylococcus aureus, the IC50 worked out at 47 µM.

`O=C(Nc1cc(C(F)(F)F)cc(C(F)(F)F)c1)NN1CCOCC1` had an MIC against Bacteria of 68 µM (≈ 24.3 µg/mL). Moreover, in data set [1], the solubility worked out at 5 µg/mL (≈ 14 µM). The same molecule came in with a half-maximal inhibitory concentration (IC50) in the data set on Staphylococcus aureus of 135 µM.

For the molecule `O=C(Nc1cc(C(F)(F)F)cc(C(F)(F)F)c1)Nn1cnnc1`, the MIC in the data set with Bacteria was 198 µM (≈ 67.2 µg/mL). The same molecule registered a solubility in data set [1] of 53 µg/mL (≈ 156 µM). The molecule also gave an IC50 in the data set with Staphylococcus aureus of 236 µM.

Consider `O=C(NNC(=O)Nc1cc(C(F)(F)F)cc(C(F)(F)F)c1)Nc1cc(C(F)(F)F)cc(C(F)(F)F)c1`, for which the MIC with Bacteria was 3 µM (≈ 1.63 µg/mL). In data set [1], the solubility is < 0.5 µg/mL. The same molecule returned an IC50 in the data set on Staphylococcus aureus of 17 µM.

On to `O=C(NNC(=O)Nc1cc(C(F)(F)F)cc(C(F)(F)F)c1)Nc1ccc(C(F)(F)F)cc1`, for which it took 2 µM (≈ 0.949 µg/mL) to inhibit growth in the data set on Bacteria (MIC). This molecule also registered a half-inhibitory concentration (IC50) with Staphylococcus aureus of 145 µM.

Consider `O=C(Nc1cc(C(F)(F)F)cc(C(F)(F)F)c1)NN1CCN(CCO)CC1`, for which the MIC against Bacteria was > 300 µM. Also, the IC50 with Staphylococcus aureus is 167 µM.

`CC(C)c1nc2ccccc2c(=O)n1NC(=O)Nc1ccc(C(F)(F)F)cc1` came in with an MIC in the data set on Bacteria of 10 µM (≈ 3.9 µg/mL). Besides, in data set [1], the solubility came to 6 µg/mL (≈ 15.4 µM). This molecule registered an IC50 in the data set on Staphylococcus aureus of 44 µM.

On to `CCc1nc2ccccc2c(=O)n1NC(=O)Nc1cc(C(F)(F)F)cc(C(F)(F)F)c1`, for which it took 7 µM (≈ 3.11 µg/mL) to inhibit growth against Bacteria (MIC). In data set [1], this molecule gave a solubility of 59 µg/mL (≈ 133 µM). Besides, in the data set on Staphylococcus aureus, half-maximal inhibition (IC50) required 36 µM.

`CC(C)c1nc2ccccc2c(=O)n1NC(=O)Nc1cc(C(F)(F)F)cc(C(F)(F)F)c1`: in the data set on Bacteria, the MIC is 1.5 µM (≈ 0.688 µg/mL). In addition, in data set [1], the solubility is 3 µg/mL (≈ 6.55 µM). The molecule also displayed an IC50 in the data set with Staphylococcus aureus of 66 µM.

In turn, `CN[C@H](CC(C)C)C(=O)N[C@H]1C(=O)N[C@@H](CC(N)=O)C(=O)N[C@H]2C(=O)N[C@H]3C(=O)N[C@H](C(=O)N[C@H](C(=O)O)c4cc(O)cc(O)c4-c4cc3ccc4O)[C@H](O)c3ccc(c(Cl)c3)Oc3cc2cc(c3O[C@@H]2O[C@H](CO)[C@@H](O)[C@H](O)[C@H]2O[C@H]2C[C@](C)(N)[C@H](O)[C@H](C)O2)Oc2ccc(cc2Cl)[C@H]1O` [VANCOMYCIN] displayed an MIC against Bacteria of 0.3 µM (≈ 0.435 µg/mL). This molecule also registered an IC50 in the data set with Staphylococcus aureus of 0.4 µM.
